In patent publication US20070270350A1, “Methods and Compositions for the Prevention and Treatment of Inflammatory Diseases or Conditions” (MUSC FOUNDATION FOR RESEARCH DEVELOPMENT, priority 2003, published 2007):

Columns and labels:
NF-κB = NF-κB reporter, gel shift and IκB phosphorylation after LPS/IFN; assay type: cell-based, rat
Description: (§1) Western Blot Analysis. For iNOS protein, the cells were washed with cold Tris buffered saline (TBS; 20 mM Trizma base, and 137 mM NaCl, pH 7.5), lysed in 1×SDS sample loading buffer (62.5 mM Trizma base, 2% w/v SDS, 10% glycerol), following sonication and centrifugation at 1,5000×g for 5 min, the supernatant was used for the iNOS western immunoblot assay. The protein concentration of samples was determined with the detergent compatible protein assay reagent (Bio-Rad Laboratories, CA) using bovine serum albumin (BSA) as the standard. Sample was boiled for 3 min with 0.1 volumes of 10% O-mercaptoethanol and 0.5% bromophenol blue mix. Fifty μg of total cellular protein was resolved by electrophoresis in 8 or 12% polyacrylamide gels, electro-transferred to polyvinylidene difluoride (PVDF) filter and blocked with Tween 20 containing Tris-buffered saline [TBST; 10 mM Trizma base (pH 7.4), 1% Tween 20, and 150 mM NaCl] with 5% skim milk. After incubation with antiserum against iNOS (BD PharMingen, CA), or hRas (Upstate Biotechnology, CA), or phospho-specific MAPK (p42/44) (Signal Transduction), in PVDF buffer for 2 h at room temperature, the filters were washed 3 times with TBST buffer and then incubated with horseradish peroxidase conjugated anti-rabbit or mouse IgG for 1 h. The membranes were autoradiographed by using ECL-plus (Amersham Pharmacia Biotech) after washing with TBST buffer.
Nuclear Extraction and Electrophoretic mobility shift assay. Nuclear extracts from cells (1×10^7 cells) were prepared using previously published method (Dignam et al., 1983) with slight modification. Cells were harvested, washed twice with ice-cold TBS, and lysed in 400 μl of buffer A containing, 10 mM KCl, 2 mM MgCl2, 0.5 mM dithiothreitol, protease inhibitor cocktail (Sigma), and 0.1% Nonidet P40 in 10 mM HEPES, pH 7.9 for 10 min on ice. Following centrifugation at 5,000×g for 10 min, the pelleted nuclei were washed with buffer A without Nonidet P40, and re-suspended in 40 μl of buffer B containing 25% (v/v) glycerol, 0.42 M NaCl, 1.5 mM MgCl2, 0.2 mM EDTA, 0.5 mM dithiothreitol, and Complete™ protease inhibitor cocktail (Roche) in 20 mM HEPES, pH7.9 for 30 min on ice. The lysates were centrifuged at 15,000×g for 15 min and the supernatants containing the nuclear proteins were stored at −70° C. until use. Ten μg of nuclear proteins was used for the electrophoretic mobility shift assay for detection of AP-1, NFκB, and C/EBP DNA binding activities. DNA-protein binding reactions were carried out at room temperature for 20 min in 10 mM Trizma base (pH 7.9), 50 mM NaCl, 5 mM MgCl2, 1 mM EDTA, 1 mM dithiothreitol, 1 μg poly (dl-dC), 5% (v/v) glycerol, and approximately 0.3 pmol of NFκB (Santa Cruz Biotech) labeled with DIG-ddUTP using terminal deoxynucleotidyl transferase (Roche). Protein-DNA complexes were resolved from protein-free DNA in 5% polyacrylamide gels at room temperature in 50 mM Tris, pH 8.3, 0.38 M glycine, and 2 mM EDTA, and electroblotted onto positively charged nylon membranes. The chemiluminescence detection method for DIG-labeled probes is identical to the method described for the non-isotopic northern blot analysis in the preceding.
Transient Transfections and Reporter Gene Assay. 3×10^5 cells/well were cultured in 6-well plates for one day before the transfection. Transfection was performed with plasmid concentration constant (2.5 μg/transfection) and 8 μl of Fugene transfection reagent (Roche Molecular Biochemicals). One day after transfection, the cells were placed in serum free media for overnight. Following appropriate treatment, the cells were washed with phosphate buffered saline (PBS), scrapped, and then resuspended with 100 μl of lysis buffer (40 mM of Tricine pH 7.8, 50 mM of NaCl, 2 mM of EDTA, 1 mM of MgSO4, 5 mM of dithiothreitol, and 1% of Triton X-100). After incubation in room temperature for 15 min with occasional vortexing, the samples were centrifuged. […]

[1] = molecular target: T1, lactosylceramide synthase (GalT-2) (Rattus norvegicus, UniProt O88419); assay: Measurement of lactosylceramide synthesis in primary astrocytes; assay type: cell-based; details: D-PDMP pretreatment 0.5 hr; 14C-galactose labelling, HPTLC
T1 construct: endogenous in cells; host or cells: primary astrocytes
T1 sequence (O88419 1-382): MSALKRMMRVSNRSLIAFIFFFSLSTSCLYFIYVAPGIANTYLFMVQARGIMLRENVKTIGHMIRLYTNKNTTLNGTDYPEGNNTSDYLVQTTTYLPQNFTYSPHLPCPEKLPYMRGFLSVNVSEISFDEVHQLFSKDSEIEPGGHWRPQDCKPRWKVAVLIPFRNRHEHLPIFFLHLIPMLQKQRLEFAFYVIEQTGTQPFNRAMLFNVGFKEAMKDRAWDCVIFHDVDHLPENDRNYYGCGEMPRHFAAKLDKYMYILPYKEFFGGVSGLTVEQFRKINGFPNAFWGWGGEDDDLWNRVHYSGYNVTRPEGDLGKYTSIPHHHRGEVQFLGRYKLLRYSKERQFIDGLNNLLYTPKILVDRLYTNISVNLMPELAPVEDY
Description: Measurement of lactosylceramide synthesis. Cultured cells were incubated in growth medium containing [^14C] galactose (5 ? Ci/ml) for 24 h as described previously. The medium was removed, and the cell monolayer was washed with sterile PBS to remove nonspecifically adsorbed radioactivity and fresh serum free medium was added. After the stimulation of cells with LPS/IFN ? (1 ? g/ml; 10 U/ml) for various durations cells were then harvested and washed with ice cold PBS and lysed by sonication. Following protein quantification, […] of protein was used for extraction of lipids using Chloroform:Methanol:HCl (100:100:1). The organic phase was dried under nitrogen. Glycosphingolipids were resolved by high performance thin layer chromatography using chloroform/methanol/0.25% KCl (70:30:4, v/v/v) as the developing solvent. The chromatographic plate was dried in air and stained with iodine vapors. The gel area corresponding to LacCer was scraped, and radioactivity was measured employing “liquiscint” (NEN Life Science Products) as a scintillating fluid.

ERK1/2 = ERK1/2 phosphorylation by immunoblot after LPS/IFN; assay type: cell-based, rat; details: D-PDMP pretreatment; LPS/IFN 20 minutes
Description: as §1

[2] = cited from earlier work
iNOS = assay: LPS/IFN-induced NO production and iNOS gene expression in primary astrocytes; assay type: cell-based, rat; details: D-PDMP 0, 10, 25, 50 μM, 0.5 h pretreatment

## CCCCCCCCCC(=O)NC(CN1CCOCC1)C(O)c1ccccc1.Cl [D-PDMP, D-threo-1-Phenyl-2-decanoylamino-3-morpholino-1-propanol HCl]
NF-κB; D-PDMP 0.5 hr before LPS/IFN
  LPS/IFN induced luciferase activity (κB-repeat luciferase): abolished
NF-κB; in the presence of D-PDMP
  phosphorylation of IκB: Decreased
NF-κB; increasing doses of D-PDMP, LPS/IFN 45 minutes
  NF-κB DNA binding activity (electrophoresis mobility shift assay): inhibited
[1]
  increase in LacCer biosynthesis following LPS/IFN stimulation: inhibited this increase
ERK1/2
  LPS/IFN induced phosphorylation of ERK 1/2: inhibited
[2]
  solubility in water: soluble
iNOS; LPS/IFN 1 μg/ml, 10 U/ml, 24 hrs
  production of nitric oxide (NO): dose dependent decrease
iNOS; LPS/IFN, mRNA 6 hrs, protein 24 hrs
  mRNA and protein levels of iNOS: dose dependent decrease
